Our source for the viability values is the supplement of paper PMC6723410.

The subject of this test is GUMC-403. The test can be described thus: viability at highest tested concentration (max response) relative to DMSO (% of DMSO control); higher = less cytotoxic. Conditions: library / dose series: MIPE library, 11-point 1:3 dilution, 48 h. An outline of the steps:
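Viability at the highest tested concentration is given relative to vehicle control. For this, conditionally reprogrammed patient-derived GUMC-403 papilloma cells at 700/well in 1536-well plates were exposed to 23 nL of pinned compound for 48 h. Luminescence from CellTiter-Glo was read on a ViewLux and scaled between empty wells (0%) and vehicle wells (100%).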

As to `O=C1Nc2ccccc2/C1=C1\Nc2ccccc2C1=O`, the viability (top concentration 46.1 µM) was 104.

`O=C(Nc1c(Cl)cncc1Cl)c1ccc(OC(F)F)c(OCC2CC2)c1` came in with a viability (top concentration 46.1 µM) of 125.

In the case of `CCC1(c2ccc(N)cc2)CCC(=O)NC1=O` (centres undefined), the viability (top concentration 46.1 µM) came to 93.1.

Consider `CN1C2=CC(=O)/C(=N/NC(N)=O)C=C2CC1S(=O)(=O)[O-].[Na+]` (centres undefined), for which the viability (top concentration 46.1 µM) is 102.

Where the note is “top concentration 46.1 µM”, `CCOC(=O)N1CCN(/[N+]([O-])=N/Oc2ccc([N+](=O)[O-])cc2[N+](=O)[O-])CC1` showed a viability of 118.

The molecule `C[N]1C2=C(SC(=C2)[S+](C)[O-])C\3=C1C(=O)N(CC4=CC(=CC=C4)N)\N=C3` (centres undefined) displayed a viability (top concentration 46.1 µM) of 106.

For the setting “top concentration 46.1 µM”, `Clc1ccc(C(Cn2ccnc2)OCc2ccsc2Cl)c(Cl)c1` (centres undefined) displayed a viability of 107.

With `CN1CCN(CCOc2cc(OC3CCOCC3)c3c(Nc4c(Cl)ccc5c4OCO5)ncnc3c2)CC1`, the viability (top concentration 46.1 µM) is 75.9.

As for `COc1cc2nccc(Oc3ccc(NC(=O)C4(C(=O)Nc5ccc(F)cc5)CC4)cc3)c2cc1OC`, where the note is “top concentration 46.1 µM”, the viability was 63.3.

As for `C[C@H](c1ccc(F)cc1CCCC(=O)O)N(c1cc(F)ccc1F)[S+](=O)([O-])c1ccc(Cl)cc1`, the viability (top concentration 46.1 µM) came out at 93.9.

Turning to `CCN1C[C@]2(OC(=O)c3ccccc3NC(C)=O)CC[C@H](OC)[C@@]34[C@@H]2C[C@@H]([C@@H]13)[C@@]1(O)C[C@H](OC)[C@H]2C[C@@H]4[C@]1(O)[C@H]2OC`, the viability (top concentration 46.1 µM) came out at 139.

As to `CC1(C)CC(O)CC(C)(C)N1[O]`, for the setting “top concentration 46.1 µM”, the viability was 121.

Turning to `Fc1ccc(Cl)cc1-c1nc(Nc2ccncc2)c2nccnc2n1`, the viability (top concentration 46.1 µM) worked out at 128.

`CN(C/C=C/C#CC(C)(C)C)Cc1cccc2ccccc12` yielded a viability (top concentration 46.1 µM) of 123.

Where the note is “top concentration 46.1 µM”, `COC1=CC=C(C=C1O)C/2=C/C(=O)C3=C(O2)C=C(O)C=C3O` showed a viability of 76.3.

`NC[C@H](O)c1ccc(O)c(O)c1` yielded a viability (top concentration 46.1 µM) of 113.

Under “top concentration 46.1 µM”, `CC(C)(C)NC(=O)Nc1cccc(Nc2ncc(F)c(NC(C)(C)CO)n2)c1` gave a viability of 121.

Regarding `CCC(C)(C)c1ccc(CC(C)CN2C[C@@H](C)O[C@@H](C)C2)cc1` (some centres undefined), the viability (top concentration 46.1 µM) was 96.2.

For the molecule `CC[C@@]1(O)C[C@H](O[C@H]2C[C@H](N(C)C)[C@H](O[C@H]3C[C@H](O)[C@H](O[C@H]4CCC(=O)[C@H](C)O4)[C@H](C)O3)[C@H](C)O2)c2c(cc3c(c2O)C(=O)c2c(O)cccc2C3=O)[C@H]1C(=O)OC`, under “top concentration 46.1 µM”, the viability amounted to 83.4.

Take `CC(=O)Oc1ccccc1C(=O)Nc1ncc([N+](=O)[O-])s1`: where the note is “top concentration 92.2 µM”, the viability is 82.2.

`CC(=O)Nc1sc2c(c1-c1nc3ccccc3s1)CNC2` had a viability (top concentration 46.1 µM) of 86.3.

Regarding `CC(C)(C)C(=O)Oc1ccc([S+](=O)([O-])Nc2ccccc2C(=O)NCC(=O)O)cc1`, the viability (top concentration 46.1 µM) stood at 113.

Under “top concentration 46.1 µM”, `C[C@](Cc1c[nH]c2ccccc12)(NC(=O)OC1C2CC3CC(C2)CC1C3)C(=O)NC[C@H](NC(=O)CCC(=O)O)c1ccccc1` (some centres undefined) yielded a viability of 103.

Where the note is “top concentration 46.1 µM”, `OCc1ccc(-c2nn(Cc3ccccc3)c3ccccc23)o1` gave a viability of 94.3.

As to `COc1cc(OC)c(NC(=O)Nc2cc(C)on2)cc1Cl`, where the note is “top concentration 46.1 µM”, the viability turned out to be 131.

For `COc1cc(OC)c(C(=O)CCCN2CCCC2)c(OC)c1`, the viability (top concentration 46.1 µM) turned out to be 112.

`CCCC[S+](=N)([O-])CCC(N)C(=O)O` (centres undefined) registered a viability (top concentration 46.1 µM) of 111.

`CCCCNc1cc(C(=O)O)cc([S+](N)(=O)[O-])c1Oc1ccccc1` gave a viability (top concentration 46.1 µM) of 138.

For the setting “top concentration 46.1 µM”, `COc1cccc2c(NCc3ccccc3)nc(-n3c(N)nc4ccccc43)nc12` registered a viability of 131.

As for `Oc1c(Cl)cc(Cl)c2cccnc12`, where the note is “top concentration 46.1 µM”, the viability is 128.

With `C[C@@H]1CCN(C(=O)CC#N)C[C@@H]1N(C)c1ncnc2[nH]ccc12`, the viability (top concentration 46.1 µM) was 79.1.

The molecule `O=C1NC(=O)[C@@H](c2cn3c4c(cccc24)CCC3)[C@@H]1c1c[nH]c2ccccc12` returned a viability (top concentration 46.1 µM) of 102.

The molecule `Cc1[nH]c(/C=C2\C(=O)Nc3ccc([S+](=O)([O-])N(C)c4cccc(Cl)c4)cc32)c(C)c1C(=O)N1CCN(C)CC1` returned a viability (top concentration 46.1 µM) of 138.

`C[C@@H](Cc1cc2c(c(C(N)=O)c1)N(CCCO)CC2)NCCOc1ccccc1OCC(F)(F)F` displayed a viability (top concentration 46.1 µM) of 112.

`CC(=O)NC(C)c1ccc(Oc2ccc(OC(C)C)cc2)cc1` (centres undefined) came in with a viability (top concentration 46.1 µM) of 121.

On to `CCc1ccc(/C=C2/SC(=S)NC2=O)cc1`, for which the viability (top concentration 46.1 µM) was found to be 106.

`Clc1ccccc1CN1CCc2sccc2C1` showed a viability (top concentration 46.1 µM) of 141.

On to `COc1nc(-c2ccc3c(c2)OCO3)n(-c2ccc(NC(=O)CSc3ccccc3)cc2)n1`, for which the viability (top concentration 46.1 µM) was determined as 101.

`N#CC[C@H](C1CCCC1)n1cc(-c2ncnc3[nH]ccc23)cn1` gave a viability (top concentration 46.1 µM) of 117.

`CC(C)CC(N(C)C)C1(c2ccc(Cl)cc2)CCC1` (centres undefined) displayed a viability (top concentration 46.1 µM) of 122.

`COc1ccccc1N1CCN(CCN(C(=O)C2CCCCC2)c2ccccn2)CC1`: where the note is “top concentration 46.1 µM”, the viability is 95.3.

`CC(C)N(CCNC(=O)CN1CCCC1=O)C(C)C` gave a viability (top concentration 46.1 µM) of 103.

Where the note is “top concentration 46.1 µM”, `COc1cc2c(cc1OC)CN(CCc1ccc(NC(=O)c3cc(OC)c(OC)cc3NC(=O)c3cnc4ccccc4c3)cc1)CC2` yielded a viability of 100.

For `Nc1nc(N)c(N=O)c(OCC2CCCCC2)n1`, where the note is “top concentration 46.1 µM”, the viability stood at 88.3.

Turning to `O=C(/C=C/c1ccc(/C=C/C(=O)Nc2ccc(C3=NCCN3)cc2)cc1)Nc1ccc(C2=NCCN2)cc1`, the viability (top concentration 46.1 µM) is 117.

In the case of `NC(=O)c1cccc(-c2cc(Nc3ccc(OC(F)(F)F)cc3)ncn2)c1`, the viability (top concentration 46.1 µM) came out at 117.

`CN1[C@@H]2CC(O)C[C@H]1[C@@H]1O[C@@H]12` (some centres undefined) displayed a viability (top concentration 46.1 µM) of 92.4.

Consider `CC(=O)OCC(=O)[C@@]12\N=C(C)/O[C@@H]1C[C@H]3[C@@H]4CCC/5=C/C(=O)/C=C\[C@]5(C)[C@H]4[C@@H](O)C[C@]23C`, for which the viability (top concentration 46.1 µM) came to 112.

Regarding `COC1=C(OC)C(=O)C(C/C=C(\C)CC/C=C(\C)CC/C=C(\C)CC/C=C(\C)CC/C=C(\C)CC/C=C(\C)CC/C=C(\C)CC/C=C(\C)CC/C=C(\C)CCC=C(C)C)=C(C)C1=O`, the viability (top concentration 46.1 µM) turned out to be 118.

For the molecule `C=C(C)[C@H]1Cc2c(ccc3c2O[C@@H]2COc4cc(OC)c(OC)cc4[C@@H]2C3=O)O1`, the viability (top concentration 46.1 µM) turned out to be 112.

Take `CNC(=O)c1ccc2c(c1)NC(=O)/C2=C(\Nc1cccc(CN(C)C)c1)c1ccccc1`: the viability (top concentration 46.1 µM) was 107.

The molecule `ClC/1=C(NCCN2CCOCC2)/C(=O)C3=C(C=CC=N3)C1=O` displayed a viability (top concentration 46.1 µM) of 2.43.

Consider `COc1ccc(Cc2ccc(NC(N)=O)cc2)cc1-c1cccc(Cl)c1`, for which, where the note is “top concentration 46.1 µM”, the viability was 124.

For `N[C@H](CSC(c1ccccc1)(c1ccccc1)c1ccccc1)C(=O)O`, the viability (top concentration 46.1 µM) turned out to be 103.

`COC(=O)N[C@H](C(=O)N1CCC[C@H]1c1ncc(-c2ccc(-c3ccc(-c4cnc([C@@H]5CCCN5C(=O)[C@@H](NC(=O)OC)C(C)C)[nH]4)cc3)cc2)[nH]1)C(C)C`: under “top concentration 46.1 µM”, the viability is 138.

In the case of `COC1=CC2=C(C=C1CC3=C(F)C(=CC=C3)Cl)C(=O)\C(=C/N2[C@H](CO)C(C)C)C(O)=O`, where the note is “top concentration 46.1 µM”, the viability amounted to 124.

`CC[C@@H](C)[C@H](NC(=O)[C@H](CC1CCCCC1)NC(=O)c1ccno1)C(=O)N1CCC2(CCc3ccccc32)CC1` came in with a viability (top concentration 46.1 µM) of 90.5.

`CN(c1nccc(=O)[nH]1)C1CCN(c2nc3ccccc3n2Cc2ccc(F)cc2)CC1` yielded a viability (top concentration 46.1 µM) of 97.4.

`COc1cc(Cl)cn2c(-c3cccc(NC4CNC4)n3)cnc12`: the viability (top concentration 46.1 µM) turned out to be 133.

For `O[C@@H]1[C@@H](O)[C@H](O[C@@H]([C@H]1O)C(O)=O)OC2=C(O)C(=C3C(=O)\C=C(/OC3=C2)C4=CC=CC=C4)O`, the viability (top concentration 46.1 µM) was 133.

`CCc1ccc(C(=O)Nc2cc(CN3CCN(C)CC3)cc(C(F)(F)F)c2)cc1C#Cc1cnc2ccnn2c1`: the viability (top concentration 46.1 µM) is 119.

Under “top concentration 46.1 µM”, `Cc1ccc(Nc2nccc(N(C)c3ccc4c(C)n(C)nc4c3)n2)cc1[S+](N)(=O)[O-]` displayed a viability of 117.

Consider `NCCc1ccc(O)c(O)c1`, for which the viability (top concentration 46.1 µM) was 108.

In the case of `N[C@@H](Cc1c[nH]c2ccc(O)cc12)C(=O)O`, the viability (top concentration 46.1 µM) worked out at 106.

For the molecule `Cc1oncc1C(=O)Nc1ccc(C(F)(F)F)cc1`, the viability (top concentration 46.1 µM) was 105.

Where the note is “top concentration 46.1 µM”, `NC/1=N/C(=O)N(/C=C1F)[C@H]2CS[C@H](CO)O2` registered a viability of 115.

The molecule `COC(=O)C\1=C(C)\N\C(=C(/C1C2=CC=CC3=NON=C23)C(=O)OC(C)C)C` (centres undefined) registered a viability (top concentration 46.1 µM) of 89.7.

For the setting “top concentration 46.1 µM”, `OCC(O)C(O)C(O)CO` (centres undefined) yielded a viability of 97.1.

For the setting “top concentration 46.1 µM”, `C=C1/C(=C\C=C2/CCC[C@]3(C)[C@@H]([C@H](C)CCCC(C)(C)O)CC[C@@H]23)C[C@@H](O)C[C@@H]1O` had a viability of 145.

Take `CO[C@H]1CCC(O[C@H]2C[C@H]([C@]3(C)CC[C@]4(C[C@H](O)[C@@H](C)[C@@H]([C@@H](C)/C=C(\C)C(=O)[C@H](C)C[C@H](C)C(=O)[O-])O4)O3)O[C@]3(O[C@@H]([C@H]4O[C@@](O)(CO)[C@H](C)C[C@@H]4C)C[C@@H]3C)[C@@H]2C)O[C@@H]1C` (some centres undefined): the viability (top concentration 46.1 µM) is 104.

Regarding `CC1(C)NC(=O)N(c2ccc([N+](=O)[O-])c(C(F)(F)F)c2)C1=O`, the viability (top concentration 46.1 µM) came out at 75.8.

Where the note is “top concentration 46.1 µM”, `CN1C(=O)/C=C(/NCCN(CCO)CCCC2=CC=C(C=C2)[N+]([O-])=O)N(C)C1=O` returned a viability of 94.3.

Under “top concentration 46.1 µM”, `CCC(=O)OCC(=O)[C@@]1(OC(=O)CC)[C@@H](C)C[C@H]2[C@@H]3CCC4=CC(=O)C=C[C@]4(C)[C@@]3(F)[C@@H](O)C[C@@]21C` returned a viability of 120.

As to `Clc1ccc(COC(Cn2ccnc2)c2ccc(Cl)cc2Cl)cc1` (centres undefined), the viability (top concentration 46.1 µM) is 117.
